Converted amounts (≈) assume the structure as drawn. One block for each molecule: values may come before it.
Legend:
[1] = phase II and phase III, treatment of AD; cited from earlier work
[2] = dynamic solubility in simulated gastrointestinal fluid; assay type: physicochemical; conditions: for solubility at 1 h / solubility at 4 h / solubility at 24 h: 37° C.; for XRPD of remaining solid: after 24 h
Description: After 24 h, the pH of the suspension was determined. The remaining suspension was centrifuged, and the remaining solid was subjected to XRPD characterization.

JAK2 = JAK2 (Homo sapiens, UniProt O60674); assay: migration detection kinase assay, JAK2
JAK2, sequence (O60674 whole entry): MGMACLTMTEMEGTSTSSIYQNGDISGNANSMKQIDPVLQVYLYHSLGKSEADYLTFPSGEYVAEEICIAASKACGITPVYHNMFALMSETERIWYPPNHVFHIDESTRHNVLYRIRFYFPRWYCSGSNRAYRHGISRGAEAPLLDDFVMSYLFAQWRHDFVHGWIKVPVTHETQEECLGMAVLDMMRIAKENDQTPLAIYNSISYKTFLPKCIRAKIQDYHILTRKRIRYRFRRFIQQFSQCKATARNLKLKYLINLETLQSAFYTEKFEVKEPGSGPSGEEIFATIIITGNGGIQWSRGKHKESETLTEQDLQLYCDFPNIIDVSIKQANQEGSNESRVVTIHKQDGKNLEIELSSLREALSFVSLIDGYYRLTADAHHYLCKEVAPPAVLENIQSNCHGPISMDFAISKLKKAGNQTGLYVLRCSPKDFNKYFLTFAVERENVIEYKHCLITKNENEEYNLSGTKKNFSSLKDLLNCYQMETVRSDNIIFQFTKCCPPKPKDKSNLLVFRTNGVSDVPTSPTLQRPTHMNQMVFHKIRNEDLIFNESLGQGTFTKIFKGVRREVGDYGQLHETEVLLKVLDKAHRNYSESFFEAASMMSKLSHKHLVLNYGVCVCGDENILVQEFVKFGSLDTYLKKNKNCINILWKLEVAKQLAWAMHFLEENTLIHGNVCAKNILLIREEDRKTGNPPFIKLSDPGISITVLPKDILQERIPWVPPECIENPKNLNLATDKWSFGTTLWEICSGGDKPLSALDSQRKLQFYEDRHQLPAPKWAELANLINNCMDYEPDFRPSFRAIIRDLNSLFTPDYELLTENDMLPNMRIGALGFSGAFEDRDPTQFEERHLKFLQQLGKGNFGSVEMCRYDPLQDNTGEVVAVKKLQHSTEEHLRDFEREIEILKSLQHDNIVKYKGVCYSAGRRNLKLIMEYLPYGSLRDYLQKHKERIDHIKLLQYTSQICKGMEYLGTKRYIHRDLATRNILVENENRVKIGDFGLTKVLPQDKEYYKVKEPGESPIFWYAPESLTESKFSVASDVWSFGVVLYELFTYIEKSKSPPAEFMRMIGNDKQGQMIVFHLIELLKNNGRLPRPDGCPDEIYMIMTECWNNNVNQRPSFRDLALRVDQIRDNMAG

[3] = press testing (crystal transformation under pressure); assay type: physicochemical; conditions: 10 Mpa, 5 min
simulated dry grinding = assay type: physicochemical; conditions: dry grinding for 3 min
JAK1 = JAK1 (Homo sapiens, UniProt P23458); assay: migration detection kinase assay, JAK1; assay type: biochemical
JAK1, sequence (P23458 whole entry): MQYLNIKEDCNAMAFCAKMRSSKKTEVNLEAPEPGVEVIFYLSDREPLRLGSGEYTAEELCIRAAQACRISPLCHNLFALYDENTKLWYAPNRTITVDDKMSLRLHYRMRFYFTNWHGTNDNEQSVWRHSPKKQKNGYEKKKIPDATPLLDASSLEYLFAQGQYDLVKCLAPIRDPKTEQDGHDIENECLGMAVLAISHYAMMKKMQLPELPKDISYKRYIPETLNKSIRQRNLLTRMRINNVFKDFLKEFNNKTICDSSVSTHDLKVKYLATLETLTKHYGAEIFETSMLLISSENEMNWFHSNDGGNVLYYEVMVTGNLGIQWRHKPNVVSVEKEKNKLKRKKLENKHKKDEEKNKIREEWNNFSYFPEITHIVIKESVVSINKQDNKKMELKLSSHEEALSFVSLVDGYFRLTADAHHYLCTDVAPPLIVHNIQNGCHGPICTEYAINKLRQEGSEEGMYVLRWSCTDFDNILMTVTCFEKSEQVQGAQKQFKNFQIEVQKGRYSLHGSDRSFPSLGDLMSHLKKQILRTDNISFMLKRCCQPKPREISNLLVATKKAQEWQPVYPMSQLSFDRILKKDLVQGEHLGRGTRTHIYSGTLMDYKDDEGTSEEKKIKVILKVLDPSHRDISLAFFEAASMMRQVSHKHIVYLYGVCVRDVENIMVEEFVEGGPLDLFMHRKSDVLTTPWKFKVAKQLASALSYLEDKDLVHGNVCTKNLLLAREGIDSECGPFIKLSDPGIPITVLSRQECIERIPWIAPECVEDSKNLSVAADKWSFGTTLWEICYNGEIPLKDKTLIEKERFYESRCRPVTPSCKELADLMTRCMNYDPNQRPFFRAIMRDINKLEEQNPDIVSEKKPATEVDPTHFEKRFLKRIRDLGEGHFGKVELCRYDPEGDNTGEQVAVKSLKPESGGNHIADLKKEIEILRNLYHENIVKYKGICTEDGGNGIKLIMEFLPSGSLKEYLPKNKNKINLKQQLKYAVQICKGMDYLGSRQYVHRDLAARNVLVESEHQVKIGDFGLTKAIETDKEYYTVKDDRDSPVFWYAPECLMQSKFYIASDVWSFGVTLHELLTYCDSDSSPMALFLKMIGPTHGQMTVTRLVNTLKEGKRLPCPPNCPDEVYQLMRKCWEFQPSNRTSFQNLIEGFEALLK

[4] = water activity experiment at 25° C.; assay type: physicochemical; conditions: for XRPD result: 25° C.
Description: The resulting solid was filtered and subjected to XRPD characterization.

JAK3 = target: T1, JAK3 (Homo sapiens, UniProt P52333); assay: migration detection kinase assay, JAK3; assay type: biochemical; conditions: 1 mM ATP
T1 sequence (P52333 1-1124): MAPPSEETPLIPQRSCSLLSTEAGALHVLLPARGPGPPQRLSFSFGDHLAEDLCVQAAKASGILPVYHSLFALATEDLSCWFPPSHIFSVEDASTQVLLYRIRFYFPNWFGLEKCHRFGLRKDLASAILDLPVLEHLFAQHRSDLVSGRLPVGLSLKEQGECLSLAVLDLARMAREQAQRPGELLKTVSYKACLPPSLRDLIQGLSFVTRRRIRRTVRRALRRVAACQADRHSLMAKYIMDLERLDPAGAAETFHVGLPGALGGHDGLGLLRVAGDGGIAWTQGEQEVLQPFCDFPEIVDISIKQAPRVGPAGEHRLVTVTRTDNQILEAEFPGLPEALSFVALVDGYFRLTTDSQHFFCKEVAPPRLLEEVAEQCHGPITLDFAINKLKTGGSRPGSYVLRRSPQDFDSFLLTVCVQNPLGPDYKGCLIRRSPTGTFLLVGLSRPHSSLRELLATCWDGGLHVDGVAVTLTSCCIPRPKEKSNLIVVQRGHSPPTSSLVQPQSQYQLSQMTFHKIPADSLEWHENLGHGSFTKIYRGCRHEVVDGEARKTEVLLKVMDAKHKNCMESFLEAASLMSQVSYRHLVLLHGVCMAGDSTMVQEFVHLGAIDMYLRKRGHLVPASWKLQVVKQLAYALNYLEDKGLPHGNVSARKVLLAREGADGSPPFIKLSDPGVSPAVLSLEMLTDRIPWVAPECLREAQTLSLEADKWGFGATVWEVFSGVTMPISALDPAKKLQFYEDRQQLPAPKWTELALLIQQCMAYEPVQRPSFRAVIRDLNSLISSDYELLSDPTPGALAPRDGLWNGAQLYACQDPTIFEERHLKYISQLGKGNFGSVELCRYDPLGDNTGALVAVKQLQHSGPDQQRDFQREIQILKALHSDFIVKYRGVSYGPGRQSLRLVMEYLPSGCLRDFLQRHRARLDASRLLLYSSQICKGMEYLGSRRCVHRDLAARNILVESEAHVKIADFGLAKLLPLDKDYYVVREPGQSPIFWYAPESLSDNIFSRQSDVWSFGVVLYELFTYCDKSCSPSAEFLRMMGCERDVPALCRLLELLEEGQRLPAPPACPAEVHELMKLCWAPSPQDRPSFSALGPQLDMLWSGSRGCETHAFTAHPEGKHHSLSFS

simulated wet grinding = assay type: physicochemical; conditions: 3 min
[5] = stability investigation (influencing factor, accelerated, intermediate, long term); assay type: physicochemical
hygroscopicity by DVS = assay type: physicochemical
TYK2 = TYK2 (Homo sapiens, UniProt P29597); assay: migration detection kinase assay, TYK2; assay type: biochemical
TYK2, sequence (P29597 whole entry): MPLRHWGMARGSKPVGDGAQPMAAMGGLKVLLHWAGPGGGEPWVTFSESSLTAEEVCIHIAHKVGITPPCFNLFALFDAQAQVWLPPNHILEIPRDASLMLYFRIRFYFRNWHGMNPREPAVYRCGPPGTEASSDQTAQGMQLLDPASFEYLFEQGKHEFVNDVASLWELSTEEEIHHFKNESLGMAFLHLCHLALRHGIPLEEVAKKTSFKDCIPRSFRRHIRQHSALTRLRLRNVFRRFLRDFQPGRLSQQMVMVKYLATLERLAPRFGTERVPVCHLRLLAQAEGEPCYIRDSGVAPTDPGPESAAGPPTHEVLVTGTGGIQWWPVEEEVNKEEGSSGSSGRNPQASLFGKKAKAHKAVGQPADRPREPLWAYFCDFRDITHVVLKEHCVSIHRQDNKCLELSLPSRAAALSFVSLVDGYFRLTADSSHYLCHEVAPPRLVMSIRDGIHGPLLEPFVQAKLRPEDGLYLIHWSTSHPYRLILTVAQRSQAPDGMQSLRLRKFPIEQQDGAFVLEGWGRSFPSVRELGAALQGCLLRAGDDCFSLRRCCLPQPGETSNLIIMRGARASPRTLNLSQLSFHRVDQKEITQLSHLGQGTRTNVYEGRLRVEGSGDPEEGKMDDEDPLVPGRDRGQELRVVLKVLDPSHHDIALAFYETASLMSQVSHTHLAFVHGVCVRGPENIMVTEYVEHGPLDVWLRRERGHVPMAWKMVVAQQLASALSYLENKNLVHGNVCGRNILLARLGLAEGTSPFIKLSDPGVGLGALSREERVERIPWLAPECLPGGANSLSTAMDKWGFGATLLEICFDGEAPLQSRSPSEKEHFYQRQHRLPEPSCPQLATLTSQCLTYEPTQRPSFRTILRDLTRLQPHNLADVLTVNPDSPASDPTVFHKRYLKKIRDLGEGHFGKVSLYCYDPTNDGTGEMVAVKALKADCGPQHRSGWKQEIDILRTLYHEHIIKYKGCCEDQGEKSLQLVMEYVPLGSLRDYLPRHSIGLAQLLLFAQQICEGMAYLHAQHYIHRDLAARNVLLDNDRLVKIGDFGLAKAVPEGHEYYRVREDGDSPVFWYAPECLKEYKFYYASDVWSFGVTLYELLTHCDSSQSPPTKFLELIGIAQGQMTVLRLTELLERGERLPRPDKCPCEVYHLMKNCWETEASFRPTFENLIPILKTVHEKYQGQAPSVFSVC

keratinocytes = assay: proliferation of keratinocytes; assay type: cell-based; conditions: preclinical study
p-STAT signaling pathway = p-STAT signaling pathway induced by cytokines; conditions: in vivo and in vitro
[6] = fassif, thermodynamic from solid, simulated pre-meal intestinal fluid
[7] = fessif, thermodynamic from solid, simulated postprandial intestinal fluid
[8] = simulated gastric fluid, thermodynamic from solid, simulated gastric juice

Structure (SMILES): N#CC[C@H](C1CCCC1)n1cc(-c2ncnc3[nH]ccc23)cn1 [Ruxolitinib]
- tolerability [1]: well tolerated

- solubility at 1 h [2, 6]: 100 µg/mL (≈ 212 µM)
- solubility at 4 h [2, 6]: 111 µg/mL (≈ 234 µM)
- solubility at 24 h [2, 6]: 120 µg/mL (≈ 253 µM)
- solubility at 1 h [2, 7]: 389 µg/mL (≈ 822 µM)
- solubility at 4 h [2, 7]: 474 µg/mL (≈ 1000 µM)
- solubility at 24 h [2, 7]: 627 µg/mL (≈ 1320 µM)
- solubility at 1 h [2, 8]: 97.4 µg/mL (≈ 206 µM)
- solubility at 4 h [2, 8]: 92.3 µg/mL (≈ 195 µM)
- solubility at 24 h [2, 8]: 102 µg/mL (≈ 215 µM)
- XRPD of remaining solid ([2]; simulated gastric juice): Crystal form I
- solubility ([2]; simulated gastrointestinal fluid, 37 °C, fassgf or other biorelevant, thermodynamic from solid, summary statement): > 8 µg/mL
- XRPD of remaining solid ([2]; simulated postprandial intestinal fluid): Crystal form I
- XRPD of remaining solid ([2]; simulated pre-meal intestinal fluid): Crystal form I
- pH after 24 h ([2]; suspension in simulated gastric juice): 2.1 (simulated
- pH after 24 h ([2]; suspension in simulated postprandial intestinal fluid): 5.1 (simulated
- pH after 24 h ([2]; suspension in simulated pre-meal intestinal fluid): 6.6 (simulated
- IC50 (JAK2): < 0.51 nM
- XRPD after pressing [3]: Crystal form I
- change of crystal form after pressing [3]: The crystal form is not changed,
- change of crystal form after dry grinding (simulated dry grinding): The crystal form is not changed, and
- change of crystallinity after dry grinding (simulated dry grinding): the crystallinity is slightly reduced
- IC50 (JAK1; 1 mM ATP): 10 nM
- XRPD result ([4]; Acetone (a.w. = 0), 10 days): Crystal form I
- XRPD result ([4]; Acetone (a.w. = 0), 22 days): Crystal form I
- XRPD result ([4]; Acetone/water 36:64 (a.w. = 0.9), 12 days): Crystal form I
- XRPD result ([4]; Acetone/water 60.4:39.6 (a.w. = 0.8), 12 days): Crystal form I
- XRPD result ([4]; Acetone/water 75.8:24.2 (a.w. = 0.7), 12 days): Crystal form I
- XRPD result ([4]; Acetone/water 91:9 (a.w. = 0.6), 10 days): Crystal form I
- XRPD result ([4]; Acetone/water 91:9 (a.w. = 0.6), 22 days): Crystal form I
- XRPD result ([4]; Acetone/water 94:6 (a.w. = 0.5), 10 days): Crystal form I
- XRPD result ([4]; Acetone/water 94:6 (a.w. = 0.5), 22 days): Crystal form I
- XRPD result ([4]; Acetone/water 97:3 (a.w. = 0.3), 10 days): Crystal form I
- XRPD result ([4]; Acetone/water 97:3 (a.w. = 0.3), 22 days): Crystal form I
- XRPD result ([4]; Acetone/water 99:1 (a.w. = 0.1), 10 days): Crystal form I
- XRPD result ([4]; Acetone/water 99:1 (a.w. = 0.1), 22 days): Crystal form I
- XRPD result ([4]; Water (a.w. = 1), 10 days): Crystal form I
- XRPD result ([4]; Water (a.w. = 1), 22 days): Crystal form I
- IC50 (JAK3): 275 nM
- XRPD after wet grinding (simulated wet grinding; Ethanol): Crystal form I
- change of crystal form after wet grinding (simulated wet grinding; Ethanol): The crystal form is not changed, and
- change of crystallinity after wet grinding (simulated wet grinding; Ethanol): the crystallinity is slightly reduced
- XRPD after wet grinding (simulated wet grinding; Water): Crystal form I
- change of crystal form after wet grinding (simulated wet grinding; Water): The crystal form is not changed, and
- change of crystallinity after wet grinding (simulated wet grinding; Water): the crystallinity is slightly reduced
- stability: appearance, related substances, assay, moisture, crystal form, content, microbial limit ([5]; accelerated condition 40° C.±2° C./75%±5% RH, 6 months): microbial limit were not changed
- Conclusion on crystal form ([5]; accelerated, intermediate condition and long term tests): keeps stable
- stability: appearance, related substances, assay, moisture, crystal form, content ([5]; high humidity of 92.5% RH, 30 days): not changed
- stability: appearance, related substances, assay, moisture, crystal form, content ([5]; high temperature of 60° C., 30 days): not changed
- stability: appearance, related substances, assay, moisture, crystal form, content ([5]; illumination of 1×ICH (1.2×10^6 Lux·hr, 200 w·hr/m^2)): not changed
- Conclusion on crystal form ([5]; influencing factor test: high temperature, high humidity, illumination): keeps stable
- stability: appearance, related substances, assay, moisture, crystal form, content, microbial limit ([5]; long-term condition 25° C.±2° C./60%±5% RH, 18 months): microbial limit were not changed
- hygroscopicity (hygroscopicity by DVS): no obvious hygroscopicity
- Hygroscopicity, weight gain (DVS) (hygroscopicity by DVS; under 95% RH): Weight gain of 0.9%
- IC50 (TYK2; 1 mM ATP): 1 nM
Structure (SMILES): Cc1cnc(Nc2cnn(C3CC(C)(C)OC(C)(C)C3)c2)nc1-c1ccc(C(=O)NCC#N)cc1 [crystal form I]
- crystal form stability over water activity range ([4]; up to 22 days, water activity range 1% to 100%): not transformed into a hydrate or other crystal forms

- inhibitory effect on JAK2 (JAK2; preclinical study): strong inhibitory effect
- inhibitory effect on JAK1 (JAK1; preclinical study): strong inhibitory effect
- inhibitory effect on TYK2 (TYK2; preclinical study): strong inhibitory effect
Structure (SMILES): Cc1cnc(Nc2cnn(C3CC(C)(C)OC(C)(C)C3)c2)nc1-c1ccc(C(=O)NCC#N)cc1 [LNK01004]
- inhibition of proliferation of keratinocytes (keratinocytes): can also inhibit the proliferation of keratinocytes
- inhibition of p-STAT signaling pathway induced by multiple cytokines (p-STAT signaling pathway): can inhibit p-STAT signaling pathway

From patent US12162866B1, “Crystal form of pyrazolyl-amino-pyrimidinyl derivative, and preparation method therefor and use thereof” (LYNK PHARMACEUTICALS CO., LTD., priority 2023, dated 2024)
